Source: article PMC8795197, “Safety and activity of WX-0593 (Iruplinalkib) in patients with ALK- or ROS1-rearranged advanced non-small cell lung cancer: a phase 1 dose-escalation and dose-expansion trial” (Signal Transduction and Targeted Therapy, 2022)
Like-named read-outs stand apart in the source and are kept apart here.

Assays:
Ba/F3 = assay: Cell proliferation inhibition assay; format: cell-based
[1] = Metabolite identification in plasma; format: in vivo, SD rat; details: oral WX-0593
Text: Under current experimental conditions, a total of 2 metabolites in addition to the parent drug were detected in rat plasma: a demethylation metabolite, M2 (MW = 554.23, P - CH2) and a mono-oxidation and dehydrogenation product, M6 (MW = 582.23, P + O - 2H). Based on the % peak area from mass spectrometry, the drug exists primarily as the parent drug in the plasma of both male and female rats (97.24% in females and 96.81% in males). Metabolites M2 (2.76% in females and 2.88% in males) and M6 ([…] and 0.31% in males) were both secondary metabolites. Based on the types of metabolites, it is speculated that WX-0593 is mainly metabolized through demethylation, oxidation, and dehydrogenation after oral administration in rats. There was no significant difference in metabolites between female and male rats.

[2] = Absorption study (IV and oral gavage PK); format: in vivo, Sprague Dawley (SD) rats; details: for bioavailability: read-out: absolute bioavailability
[3] = Metabolic stability in liver microsomes; format: in vitro ADME; details: for half-life: read-out: elimination half-life
Text: The objective of this study is to evaluate the metabolic stability of tested drug WX-0593 in CD-1 mice, SD rats, beagles, cynomolgus monkeys, and human liver microsomes.

[4] = Reproductive toxicity study; details: rat, in vivo
hERG = hERG (Homo sapiens, UniProt Q12809); assay: Inhibition of hERG currents; format: cell-based; details: human; maximum tested dose 30 μM
Chain of hERG (Q12809 whole entry): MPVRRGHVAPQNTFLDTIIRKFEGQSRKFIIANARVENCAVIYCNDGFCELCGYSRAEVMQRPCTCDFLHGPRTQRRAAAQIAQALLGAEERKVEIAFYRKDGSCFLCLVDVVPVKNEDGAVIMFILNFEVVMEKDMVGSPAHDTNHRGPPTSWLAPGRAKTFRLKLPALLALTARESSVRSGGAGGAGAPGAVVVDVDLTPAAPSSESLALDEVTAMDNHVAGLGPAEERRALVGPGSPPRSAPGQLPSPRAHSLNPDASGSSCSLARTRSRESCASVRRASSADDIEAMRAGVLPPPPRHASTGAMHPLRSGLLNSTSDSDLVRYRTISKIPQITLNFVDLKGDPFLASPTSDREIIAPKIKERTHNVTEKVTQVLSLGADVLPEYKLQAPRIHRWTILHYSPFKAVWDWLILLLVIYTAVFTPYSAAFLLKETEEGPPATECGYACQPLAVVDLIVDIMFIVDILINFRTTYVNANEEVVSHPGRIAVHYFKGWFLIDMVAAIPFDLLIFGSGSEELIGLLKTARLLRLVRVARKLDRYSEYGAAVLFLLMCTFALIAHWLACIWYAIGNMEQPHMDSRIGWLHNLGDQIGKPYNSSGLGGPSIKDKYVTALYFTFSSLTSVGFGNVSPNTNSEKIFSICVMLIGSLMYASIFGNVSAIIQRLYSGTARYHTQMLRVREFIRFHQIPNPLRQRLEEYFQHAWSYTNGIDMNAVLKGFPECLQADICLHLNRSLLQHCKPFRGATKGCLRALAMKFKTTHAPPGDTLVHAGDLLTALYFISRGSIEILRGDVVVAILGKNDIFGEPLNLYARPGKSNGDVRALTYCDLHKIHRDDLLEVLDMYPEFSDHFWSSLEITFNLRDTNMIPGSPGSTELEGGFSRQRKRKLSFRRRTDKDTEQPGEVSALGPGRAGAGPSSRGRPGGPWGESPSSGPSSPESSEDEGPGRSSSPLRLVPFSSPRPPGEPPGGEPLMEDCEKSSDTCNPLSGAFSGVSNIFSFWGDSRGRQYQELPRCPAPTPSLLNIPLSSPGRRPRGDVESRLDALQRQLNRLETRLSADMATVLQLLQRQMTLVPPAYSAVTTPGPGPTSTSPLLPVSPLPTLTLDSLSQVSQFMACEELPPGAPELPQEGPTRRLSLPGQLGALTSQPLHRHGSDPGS
Method: (§1) […]. Therefore, WX-0593 has a low risk of cardiotoxicity. There were no effects on the CNS and respiratory system in rats at doses of 3, 10, and 30 mg/kg. However, WX-0593 10 and 30 mg/kg may result in benign respiratory rate and decreases in minute ventilation in female rats. There were no effects on the cardiovascular system, blood pressure, ECG parameters or waveforms in monkeys at doses of 5, 10, and 25 mg/kg; 10 and 25 mg/kg may result in mild decreases in heart rate (within the normal range) and PR prolongation and QTc shortening associated with bradycardia within the normal range (no statistical difference when compared to the control arm). No cardiovascular system adverse reactions related to the test product were found. The human equivalent dose (using 60 kg) is 3636 mg/person in CNS, 3636 mg/person in male respiratory system and 363.6 mg/person in female respiratory system, and 607 mg/person in cardiovascular system.

hERG currents = hERG currents (Homo sapiens, UniProt Q12809); assay: Inhibition of hERG currents; format: cell-based
Chain of hERG currents (Q12809 whole entry): as above
Method: as §1

Ba/F3 ALK-G1202R = assay: Growth of transfected Ba/F3 cells (CellTiter-Glo, 3 days); format: cell-based; details: Mus musculus, BaF3; ALK-G1202R; read-out: IC50
Method: (§2) Harvest cells during the logarithmic growth period and count cells using blood counting chamber. Adjust cell concentration with culture medium. Add 90µl cell suspensions to two 96-well plates to the final cell density as described before. Incubate the plate overnight in humidified incubator at 37℃ with 5% CO2. Dispense 10µl drug solution (10×) to each well (triplicate for each concentration), and the DMSO final concentration in culture medium is 0.1% [v/v]. Culture the plates for 3 days. On Day 3, Read luminescent using Multi Label Reader. The software of GraphPad Prism was used to calculate IC50. The graphical curves were fitted using a nonlinear regression model with a sigmoidal dose response.

Ba/F3 ALK-WT = assay: as above; format: cell-based; details: Mus musculus, BaF3; ALK-WT; read-out: IC50
Method: as §2

Ba/F3 ALK-L1196M = assay: as above; format: cell-based; details: Mus musculus, BaF3; ALK-L1196M; read-out: IC50
Method: as §2

Ba/F3 ALK-I1171T = assay: as above; format: cell-based; details: Mus musculus, BaF3; ALK-I1171T; read-out: IC50
Method: as §2

Ba/F3 ALK-F1174V = assay: as above; format: cell-based; details: Mus musculus, BaF3; ALK-F1174V; read-out: IC50
Method: as §2

Ba/F3 ALK-F1174L = assay: as above; format: cell-based; details: Mus musculus, BaF3; ALK-F1174L; read-out: IC50
Method: as §2

Ba/F3 ALK-G1202del = assay: as above; format: cell-based; details: Mus musculus, BaF3; ALK-G1202del; read-out: IC50
Method: as §2

Ba/F3 ALK-I1171N = assay: as above; format: cell-based; details: Mus musculus, BaF3; ALK-I1171N; read-out: IC50
Method: as §2

Ba/F3 ALK-I1171S = assay: as above; format: cell-based; details: Mus musculus, BaF3, ALK-I1171S, read-out: IC50
Method: as §2

[5] = Sprague-Dawley, rat, SD rats liver microsomes
[6] = beagle, dog, beagles liver microsomes
[7] = cynomolgus monkey, cynomolgus monkeys liver microsomes
[8] = mouse, CD-1 mice liver microsomes

SMILES: COc1cc(N2CCC3(CCN(C)CC3)CC2)ccc1Nc1ncc(Cl)c(Nc2ccccc2P(C)(C)=O)n1 [WX-0593]
- IC50 relative to ALK-related cells (Ba/F3): significantly higher
- % peak area from mass spectrometry in plasma ([1]; female rats): 97.24%
- % peak area from mass spectrometry in plasma ([1]; male rats): 96.81%
- Tmax ([2]; both sexes, Sprague-Dawley, rat, plasma, oral gavage 2–24 mg/kg): 2.08 to 2.75 h
- half-life ([2]; both sexes, Sprague-Dawley, rat, plasma, oral gavage 2–24 mg/kg, read-out: plasma terminal half-life): 188 to 222 min
- AUC(0-inf) ([2]; both sexes, Sprague-Dawley, rat, plasma, single IV 2 mg/kg): 1560 ± 348 ng·h/mL
- Vd ([2]; both sexes, Sprague-Dawley, rat, plasma, single IV 2 mg/kg, read-out: apparent volume of distribution (Vdss)): 5.23 ± 0.942 L/kg
- MRT inf ([2]; both sexes, Sprague-Dawley, rat, plasma, single IV 2 mg/kg, read-out: mean residence time (MRT0-inf)): 3.96 ± 0.355 h
- clearance ([2]; both sexes, Sprague-Dawley, rat, plasma, single IV 2 mg/kg, read-out: plasma clearance (CL)): 22.2 ± 4.67 mL/min/kg
- half-life ([2]; both sexes, Sprague-Dawley, rat, plasma, single IV 2 mg/kg, read-out: plasma elimination half-life T1/2 (converted)): 215 ± 39.1 min
- bioavailability ([2]; both sexes, Sprague-Dawley, rat, plasma, single oral gavage 2 mg/kg): 36.9%
- bioavailability ([2]; both sexes, Sprague-Dawley, rat, plasma, single oral gavage 24 mg/kg): 69.6%
- drug accumulation ([2]; oral 8 mg/kg, 7 consecutive days): no significant drug accumulation
- CL as % of hepatic blood flow in rats ([2]; single IV 2 mg/kg): 40.3%
- absolute bioavailability ([2]; single oral gavage 8 mg/kg): 64.7%
- CLint scaled [3, 5]: < 17.3 mL/min/kg
- half-life [3, 5]: > 145 min
- CLint scaled [3, 6]: 14.7 mL/min/kg
- half-life [3, 6]: 136 min
- CLint scaled [3, 7]: < 13 mL/min/kg
- half-life [3, 7]: > 145 min
- CLint scaled ([3]; human liver microsomes): < 9.5 mL/min/kg
- half-life ([3]; human liver microsomes): > 145 min
- CLint scaled [3, 8]: 52.3 mL/min/kg
- half-life [3, 8]: 105 min
- NOAEL as multiple of the effective dose in nude mice [4]: 8 times
- NOAEL ([4]; read-out: NOAEL of fertility and early embryo developmental toxicity): 10 mg/kg
- inhibition at 30 μM (hERG): 58.1%
- IC50 (hERG currents): 20 µM
- hERG slope (hERG currents): 0.95
- IC50 (Ba/F3 ALK-G1202R): 96 nM
- IC50 (Ba/F3 ALK-WT): 21 nM
- IC50 (Ba/F3 ALK-L1196M): 36 nM
- IC50 (Ba/F3 ALK-I1171T): 11.3 nM
- IC50 (Ba/F3 ALK-F1174V): 22.3 nM
- IC50 (Ba/F3 ALK-F1174L): 36 nM
- IC50 (Ba/F3 ALK-G1202del): 930 nM
- IC50 (Ba/F3 ALK-I1171N): 17.9 nM
- IC50 (Ba/F3 ALK-I1171S; first listing (r12)): 32 nM
- IC50 (Ba/F3 ALK-I1171S; second listing (r19)): 21.4 nM
